Data on 19 compounds can be found in US8334308B2, “Renin inhibitors” (Merck Sharp & Dohme Corp., priority 2007, dated 2012).

The target in test [1] is T1, human recombinant renin (Homo sapiens, UniProt P00797).
T1 sequence (P00797 67-406): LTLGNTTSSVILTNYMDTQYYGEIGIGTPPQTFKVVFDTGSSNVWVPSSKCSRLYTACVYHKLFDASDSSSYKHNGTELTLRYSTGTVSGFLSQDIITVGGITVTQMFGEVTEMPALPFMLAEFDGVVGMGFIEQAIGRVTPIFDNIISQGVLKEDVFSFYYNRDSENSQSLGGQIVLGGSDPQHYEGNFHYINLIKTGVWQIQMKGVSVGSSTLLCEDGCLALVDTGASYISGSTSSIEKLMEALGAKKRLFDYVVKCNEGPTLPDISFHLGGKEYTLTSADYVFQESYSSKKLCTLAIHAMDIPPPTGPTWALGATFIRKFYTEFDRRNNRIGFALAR
The experiment in a line: Inhibition of human recombinant renin (enzymatic in vitro assay, Ang I EIA). The test is classed as biochemical. To be noted: human recombinant renin 40 pM, buffer, 37° C. 3 h. The procedure:
Inhibition of Human Recombinant Renin
The enzymatic in vitro assay was performed in 384-well polypropylene plates (Nunc). The assay buffer consisted of PBS (Gibco BRL) including 1 mM EDTA and 0.1% BSA. The reaction mixture were composed of 47.5 μL per well of an enzyme mix and 2.5 μL of renin inhibitors in DMSO. The enzyme mix was premixed at 4° C. and consists of the following components: […]
human recombinant renin (40 pM) synthetic human angiotensin(1-14) (0.5 μM) hydroxyquinoline sulfate (1 mM)
The mixtures were then incubated at 37° C. for 3 h. The enzyme reaction was stopped by placing the reaction plate on wet ice.
To determine the enzymatic activity and its inhibition, the accumulated Ang I was detected by an enzyme immunoassay (EIA) in 384-well plates (Nunc). 5 μL of the reaction mixture or standards were transferred to immuno plates which were previously coated with a covalent complex of Ang I and bovine serum albumin (Ang I-BSA). 75 μL of Ang I-antibodies in assay buffer above including 0.01% Tween 20 were added and the plates were incubated at 4° C. overnight.
An alternative protocol could be used by stopping the enzymatic reaction with 0.02N final concentration of HCl. 5 μL of the reaction mixture or standards were transferred to immuno plates and 75 μL of Ang I-antibodies in assay buffer above including 0.01% Tween 20 were added and the plates were incubate at RT for 4 h.

Test [2] concerns the target T2, renin in human plasma (Homo sapiens, UniProt P00797).
T2 construct: host or cells: recombinant renin of unstated origin added to human plasma from 10 normal donors
T2 sequence (P00797 67-406): T1 sequence (P00797 67-406)
The test can be described thus: Inhibition of renin in human plasma (enzymatic in vitro assay, Ang I EIA). In kind it is biochemical. Particulars: human plasma from 10 normal donors, 37° C. 2 h. How it is done: Inhibition of Renin in Human Plasma
The enzymatic in vitro assay was performed in 384-well polypropylene plates (Nunc). The assay buffer consisted of PBS (Gibco BRL) including 1 mM EDTA and 0.1% BSA. The reaction mixture was composed of 80 μL, per well of human plasma, enzyme, Ang I-antibodiesmix and 5 μL of renin inhibitors in DMSO. The human plasma mix was premixed at 4° C. and consists of […]
human plasma from 10 normal donors human recombinant renin (3 μM)
The mixtures were then incubated at 37° C. for 2 h.
To determine the enzymatic activity and its inhibition, the accumulated Ang I was detected by an enzyme immunoassay (EIA) in 384-well plates (Nunc). 10 μL of the reaction mixture or standards were transferred to immuno plates which were previously coated with a covalent complex of Ang I and bovine serum albumin (Ang I-BSA). 70 μL assay buffer were added and the plates were incubated at 4° C. overnight.

Some results are limits rather than exact numbers.

As a reminder, the IC50 is the point on the concentration scale where inhibition reaches its midpoint. Turning to `COCCCc1ccccc1-c1ccc(C(CN)Cc2ccc(OCCOc3c(Cl)cc(C)cc3Cl)cc2)c(C(F)(F)F)c1` (stereo not drawn) [Example 13, 3-{4-[2-(2,6-dichloro-4-methylphenoxy)ethoxy]phenyl}-2-[2′-(3-methoxypropyl)-3-(trifluoromethyl)biphenyl-4-yl]propan-1-amine], the IC50 in test [1] is 0.9 nM; in test [2] it was 156 nM.
In the same order, the values of `Cc1cc(Cl)c(OCCOc2ccc(CC(CN)c3ccc(-c4ccccc4CCC#N)cc3C)cc2)c(Cl)c1` (stereo not drawn) [Example 14, 3-[4′-(2-amino-1-{4-[2-(2,6-dichloro-4-methylphenoxy)ethoxy]benzyl}ethyl)-3′-methylbiphenyl-2-yl]propanenitrile] are 10.6 nM and 544 nM.
In the same order, the values of `COCCCc1ncccc1-c1ccc(C(CN)Cc2ccc(OCCOc3c(Cl)cc(C)cc3Cl)cc2)c(C)c1` (stereo not drawn) [Example 16, 3-{4-[2-(2,6-dichloro-4-methylphenoxy)ethoxy]phenyl}-2-{4-[2-(3-methoxypropyl)pyridin-3-yl]-2-methylphenyl}propan-1-amine] are 1.1 nM and 94.6 nM.
`Cc1cc(Cl)c(OCCOc2ccc(CC(CN)c3ccc(-c4ccccc4Cl)cc3C)cc2)c(Cl)c1` (stereo not drawn) [Example 1, 2-(2′-Chloro-3-methyl-biphenyl-4-yl)-3-{4-[2-(2,6-dichloro-4-methyl-phenoxy)-ethoxy]-phenyl}-propylamine]: the figures for the half-inhibitory concentration (IC50) in test [1] and in test [2] were 6 nM and 796 nM, respectively.
The corresponding values for `Cc1cc(Cl)c(OCCOc2ccc(CC(CN)c3ccc(-c4ccccc4Cl)cc3F)cc2)c(Cl)c1` (stereo not drawn) [Example 7, 2-(2′-chloro-3-fluorobiphenyl-4-yl)-3-{4-[2-(2,6-dichloro-4-methylphenoxy)ethoxy]phenyl}propan-1-amine] are 7 nM and 1150 nM.
As for `COCCc1ccccc1-c1ccc(C(CN)Cc2ccc(OCCOc3c(Cl)cc(C)cc3Cl)cc2)c(C)c1` (stereo not drawn) [Example 2, 3-{4-[2-(2,6-dichloro-4-methylphenoxy)ethoxy]phenyl}-2-[2′-(2-methoxyethyl)-3-methylbiphenyl-4-yl]propan-1-amine], the IC50 in test [1] is 19.7 nM; in test [2], 1920 nM.
`COCCCOc1ccccc1-c1ccc(C(CN)Cc2ccc(OCCOc3c(Cl)cc(C)cc3Cl)cc2)c(C)c1` (stereo not drawn) [Example 5, 3-{4-[2-(2,6-dichloro-4-methylphenoxy)ethoxy]phenyl}-2-[2′-(3-methoxypropoxy)-3-methylbiphenyl-4-yl]propan-1-amine]: the IC50 in test [1] turned out to be 1.7 nM; in test [2], 1160 nM.
The corresponding values for `COCCCc1cccc(C)c1-c1ccc(C(CN)Cc2ccc(OCCOc3c(Cl)cc(C)cc3Cl)cc2)c(C)c1` (stereo not drawn) [Example 12, 3-{4-[2-(2,6-dichloro-4-methylphenoxy)ethoxy]phenyl}-2-[2′-(3-methoxypropyl)-3,6′-dimethylbiphenyl-4-yl]propan-1-amine] are 0.2 nM and 643 nM.
The corresponding values for `Cc1cc(Cl)c(OCCOc2ccc(CC(CN)c3ccc(-c4ccccc4Cl)cc3Cl)cc2)c(Cl)c1` (stereo not drawn) [Example 10, 2-(2′,3-dichlorobiphenyl-4-yl)-3-{4-[2-(2,6-dichloro-4-methylphenoxy)ethoxy]phenyl}propan-1-amine] are 0.5 nM and 764 nM.
In the same order, the values of `Cc1cc(Cl)c(OCCOc2ccc(CC(CN)c3ccc(-c4c(Cl)cccc4Cl)cc3C)cc2)c(Cl)c1` (stereo not drawn) [Example 39] are 16.3 nM and 2320 nM.
For `COCCCc1ccccc1-c1ccc(C(CN)Cc2cc(F)cc(F)c2)c(C)c1` (stereo not drawn) [Example 32, 3-(3,5-difluorophenyl)-2-[2′-(3-methoxypropyl)-3-methylbiphenyl-4-yl]propan-1-amine], the concentration for half-maximal inhibition (IC50) was 285 nM in test [1] and more than 10000 nM in test [2].
On to `COc1cc(-c2ccccc2Cl)ccc1C(CN)Cc1ccc(OCCOc2c(Cl)cc(C)cc2Cl)cc1` (stereo not drawn) [Example 8, 2-(2′-chloro-3-methoxybiphenyl-4-yl)-3-{4-[2-(2,6-dichloro-4-methylphenoxy)ethoxy]phenyl}propan-1-amine], for which the IC50 in test [1] is 47.6 nM; in test [2], 3620 nM.
In the same order, the values of `Cc1cc(Cl)c(OCCOc2ccc(CC(CN)c3ccc(-c4ccccc4CCC(=O)N(C)C)cc3C)cc2)c(Cl)c1` (stereo not drawn) [Example 24, 3-[4′-(2-amino-1-{4-[2-(2,6-dichloro-4-methylphenoxy)ethoxy]benzyl}ethyl)-3′-methylbiphenyl-2-yl]-N—N-dimethylpropanamide] are 30.8 nM and more than 1110 nM.
For `COCCCc1ccccc1-c1ccc(C(CN)Cc2ccc(OCCOc3c(Cl)cc(C)cc3Cl)cc2)c(C)c1` (stereo not drawn) [Example 3, 3-{4-[2-(2,6-dichloro-4-methylphenoxy)ethoxy]phenyl}-2-[2′-(3-methoxypropyl)-3-methylbiphenyl-4-yl]propan-1-amine], the IC50 worked out at 0.4 nM in test [1] and 116 nM in test [2].
Turning to `COCCCc1c(-c2ccc(C(CN)Cc3ccc(OCCOc4c(Cl)cc(C)cc4Cl)cc3)c(C)c2)ccc[n+]1[O-]` (stereo not drawn) [Example 21, 3-{-4-[2-(2,6-dichloro-4-methylphenoxy)ethoxy]phenyl}-2-{4-[2-(3-methoxypropyl)-1-oxidopyridin-3-yl]-2-methylphenyl}propan-1-amine], the IC50 in test [1] came to 4.3 nM; in test [2], 103 nM.
As to `COCCCc1ccccc1-c1cc(C(F)(F)F)c(C(CN)Cc2ccc(OCCOc3c(Cl)cc(C)cc3Cl)cc2)cn1` (stereo not drawn) [Example 11, 3-{4-[2-(2,6-dichloro-4-methylphenoxy)ethoxy]phenyl}-2-[6-[2-(3-methoxypropyl)phenyl]-4-(trifluoromethyl)pyridin-3-yl]propan-1-amine], the IC50 came out at 0.3 nM in test [1] and 21 nM in test [2].
In the same order, the values of `COCCOc1ccccc1-c1ccc(C(CN)Cc2ccc(OCCOc3c(Cl)cc(C)cc3Cl)cc2)c(C)c1` (stereo not drawn) [Example 4, 3-{4-[2-(2,6-dichloro-4-methylphenoxy)ethoxy]phenyl}-2-[2′-(2-methoxyethoxy)-3-methylbiphenyl-4-yl]propan-1-amine] are 7.4 nM and 1500 nM.
In test [2], `CC(=O)NCCc1ccccc1-c1ccc(C(CN)Cc2ccc(OCCOc3c(Cl)cc(C)cc3Cl)cc2)c(C)c1` (stereo not drawn) [Example 30, 2-{2′-[2-(acetylamino)ethyl]-3-methylbiphenyl-4-yl}-3-{4-[2-(2,6-dichloro-4-methylphenoxy)ethoxy]phenyl}propan-1-aminium chloride] came in with an IC50 of 9.6 nM.
For `Cc1cc(Cl)c(OCCOc2ccc(CC(CN)c3ccc(-c4ccccc4Cl)cc3)cc2)c(Cl)c1` (stereo not drawn) [Example 6, 2-(2′-chlorobiphenyl-4-yl)-3-{4-[2-(2,6-dichloro-4-methylphenoxy)ethoxy]phenyl}propan-1-amine], the IC50 in test [1] is 44.4 nM.
